In PubChem BioAssay (NCI):
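48-hour exposure; five concentrations; linearly interpolated endpoints. TGI is the concentration that stops growth completely.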 Where a SMILES comes first, the peptide text is derived from it. [ ]: non-standard residue; d: D form. The star is where a group is joined. ξ: configuration not given here. ξPhe(4-NO2) = NC(Cc1ccc([N+](=O)[O-])cc1)C(=O)O; Boc = CC(C)(C)OC(=O)*

Columns and labels:
Experiment in all cases: DTP human tumour cell line panel, 48 h
ACHN renal = system: ACHN renal
CCRF-CEM leukemia = system: CCRF-CEM leukemia
HCC-2998 colon = system: HCC-2998 colon
HCT-116 colon = system: HCT-116 colon
HOP-92 NSCLC = system: HOP-92 NSCLC
MDA-MB-435 = system: MDA-MB-435
NCI/ADR-RES ovarian = system: NCI/ADR-RES ovarian
RXF 393 renal = system: RXF 393 renal
SF-268 CNS = system: SF-268 CNS
SNB-75 CNS = system: SNB-75 CNS
U251 CNS = system: U251 CNS
UACC-62 melanoma = system: UACC-62 melanoma

Row | SMILES | TGI (ACHN renal) | TGI (CCRF-CEM leukemia) | TGI (HCC-2998 colon) | TGI (HCT-116 colon) | TGI (HOP-92 NSCLC) | TGI (MDA-MB-435) | TGI (NCI/ADR-RES ovarian) | TGI (RXF 393 renal) | TGI (SF-268 CNS) | TGI (SNB-75 CNS) | TGI (U251 CNS) | TGI (UACC-62 melanoma)
1 | CCNC(=O)CNC(=O)C(Cc1ccc([N+](=O)[O-])cc1)NC(=O)OC(C)(C)C (stereo not drawn) (Boc-[ξPhe(4-NO2)]-Gly-NHEt) | > 100 µM | > 100 µM | > 100 µM | > 100 µM | > 100 µM | > 100 µM | > 100 µM | > 100 µM | > 100 µM | > 100 µM | > 100 µM | > 100 µM
2 | O=P(O)(O)CC1OC(CO)C(O)C1O (stereo not drawn) | > 100 µM | > 100 µM | > 100 µM | > 100 µM | > 100 µM | > 100 µM | > 100 µM | > 100 µM | > 100 µM | > 100 µM | > 100 µM | > 100 µM
3 | COc1ccc2[nH]c3c(C)c4ncccc4c(C)c3c2c1 | > 10 µM | > 10 µM | > 10 µM | > 10 µM | > 10 µM | 3.21 µM | > 10 µM | 9.39 µM | > 10 µM | > 10 µM | > 10 µM | > 10 µM
4 | FC(F)(F)C1(c2ccccc2)SCc2nc3ccccc3n21 (stereo not drawn) | > 100 µM | > 100 µM | > 100 µM | > 100 µM | > 100 µM | > 100 µM | > 100 µM | > 100 µM | > 100 µM | > 100 µM | > 100 µM | > 100 µM
